# Source: patent US4738979A, “α2 -blocking derivatives of imidazole” (G. D. Searle & Co., priority 1985, dated 1988)
# Tested on: not listed separately
# Assay: acute toxicity after oral administration to mice (LD50)
# Settings: mouse, in vivo, 15 days mortality
# Procedure: The acute toxicity of the compounds of the present invention was studied after oral administration to mice. The products to be tested, suspended in a 1% tragacanth gum mucilage, were administered by means of an intragastric probe to groups of three male mice which had fasted since the preceding day. The doses tested are a function of the effect observed and can vary from 3,000 to 3 mg/kg or less. The mortality was recorded for 15 days. The lethal dose for 50% of the animals (LD50) was calculated according to the method of J. Litchfield and F. Wilcoxon, J. Pharmacol. Exp. Ther., 96, 99 (1949) and expressed in mg/kg. The effect of the products on the behaviour of the animals is observed until 5 to 6 hours after the treatment indicated above and after 24 hours, using a method derived from that of S. Irwin, described by R. A. Turner, Screening Methods in Pharmacology, Chapter 3, pages 22-34, Academic Press, 1965. If anomalies are noted, the observation is prolonged and smaller doses are tested.
row,Compound,LD50 at 360 h [mg/kg]
1,"c1ccc(-c2ccc(C(Cc3c[nH]cn3)c3ccccc3)cc2)cc1 (stereo not drawn) [Compound 29, 4(5)-{[2-(4-biphenyl)-2-phenyl]ethyl}imidazole]",> 300

# Tested on: α2 adrenergic receptors of the central nervous system
# Assay: inhibition of the antihypertensive action of clonidine in spontaneously hypertensive rats (SHR)
# Assay type: in vivo, rat
# Settings: 1 mg/kg p.o., clonidine 50 μg/kg s.c.
# Procedure: In the first study, carried out upon unanaesthetized spontaneously hypertensive rats (SHR rats), the ability of the compounds of the present invention to inhibit the antihypertensive action of clonidine was determined.
# The antihypertensive activity of clonidine results from an interaction with α2 adrenergic receptors of the central nervous system, i.e., central antihypertensive actions.
# In this test, two groups of SHR rats are utilized as follows. In the first group, prior to subcutaneous administration of clonidine (50 μg/kg), the SHR rats are treated with the compound to be tested (1 mg/kg p.o.) dissolved in a saline vehicle. The second group (control group) of SHR rats are treated with the saline vehicle only, prior to subcutaneous administration of clonidine.
# The arterial pressure is measured in the region of the median coccygeal artery according to the method of J. Roba, A. F. DeSchaepdrijver, Exp. Anim., 4, 147-162 (1971).
# The results of this assay summarized in Table II, column 5, are expressed as a percentage of inhibition of the effect of clonidine.
row,Compound,α2 Antagonist (% Inhibition of the Antihypertension of Clonidine) [%]
1,CC(O)(c1c[nH]cn1)C(c1ccccc1)c1ccccc1 (stereo not drawn) [Compound 3],67
2,"CC(Cc1c[nH]cn1)(c1ccccc1)c1ccccc1 [Compound 10, 4(5)-[1-(2,2-diphenyl)-propyl]imidazole]",46
3,COc1ccc(C(Cc2c[nH]cn2)c2ccc(OC)cc2)cc1 [Compound 23],40
4,Cc1ccc(C(Cc2c[nH]cn2)c2ccccc2)c(C)c1 (stereo not drawn) [Compound 24],93

# Tested on: α1 -adrenergic receptors
# Assay: binding to α1-adrenergic receptors on rat brain homogenates (3H-WB 4101)
# Settings: 1.6 nM 3H-WB 4101
# Procedure: (§1) The activity of the compounds according to the invention with respect to binding of the α-adrenergic receptors was determined in vitro according to a method deriving from the works of B. R. Rouot et al., Life Sci., 25, 769 (1979) and of D. U'Prichard et al., Mol. Pharmacol., 13, 454 (1977). This method consists in measuring the binding to the receptor on rat brain homogenates, by marking by means of a specific tritriated ligand placed in competition with the product to be tested.
# (§2) In the presenct case the binding to the α1 -adrenergic receptors was measured by means of 1.6 nM of ^3 H-WB 4101 and the binding to the α2 -adrenergic receptors by means of 0.7 nM of ^3 H-p. aminoclonidine, the non-specific binding being determined by 1,000 nM of phentolamine. The results are given in Table II, column 3, and are expressed in terms of percentage of inhibition of the specific binding of 10^-7 molar compound concentration.
# (§3) (2) The specific binding is the total binding less the nonspecific
# (§4) binding. The total binding is the binding in the absence of nonradioactiv
# (§5) drug. The nonspecific binding is the binding in the presence of 1,000 nM
# (§6) of phentolamine. The products of the invention are tested at a
# (§7) concentration of 10^-7 molar.
row,Compound,% Inhibition of the Specific Binding at 10^-7 M for α1 Recep. [%]
1,CC(O)(c1c[nH]cn1)C(c1ccccc1)c1ccccc1 (stereo not drawn) [Compound 3],0
2,"CC(Cc1c[nH]cn1)(c1ccccc1)c1ccccc1 [Compound 10, 4(5)-[1-(2,2-diphenyl)-propyl]imidazole]",0
3,COc1ccc(C(Cc2c[nH]cn2)c2ccc(OC)cc2)cc1 [Compound 23],0
4,Cc1ccc(C(Cc2c[nH]cn2)c2ccccc2)c(C)c1 (stereo not drawn) [Compound 24],0
5,"c1ccc(-c2ccc(C(Cc3c[nH]cn3)c3ccccc3)cc2)cc1 (stereo not drawn) [Compound 29, 4(5)-{[2-(4-biphenyl)-2-phenyl]ethyl}imidazole]",15

# Target: T1, α2 -adrenergic receptors (Rattus norvegicus, UniProt P22909)
# T1 construct: from tissue; host or cells: rat brain homogenates
# T1 sequence (P22909 1-465): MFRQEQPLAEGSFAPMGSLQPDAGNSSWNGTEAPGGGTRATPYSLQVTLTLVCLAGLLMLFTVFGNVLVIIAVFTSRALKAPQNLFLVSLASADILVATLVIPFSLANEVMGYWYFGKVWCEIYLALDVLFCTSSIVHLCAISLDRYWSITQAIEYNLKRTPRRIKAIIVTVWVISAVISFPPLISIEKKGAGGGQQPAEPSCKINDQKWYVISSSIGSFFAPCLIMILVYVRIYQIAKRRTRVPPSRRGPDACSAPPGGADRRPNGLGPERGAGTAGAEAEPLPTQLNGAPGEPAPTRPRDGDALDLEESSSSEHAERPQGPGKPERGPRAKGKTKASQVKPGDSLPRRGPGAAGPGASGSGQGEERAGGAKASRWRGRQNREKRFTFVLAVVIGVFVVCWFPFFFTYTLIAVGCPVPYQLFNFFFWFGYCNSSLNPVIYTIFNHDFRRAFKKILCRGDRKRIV
# Assay: binding to α2-adrenergic receptors on rat brain homogenates (3H-p. aminoclonidine)
# Settings: 10^-7 M; rat brain homogenates; 0.7 nM 3H-p. aminoclonidine; read-out: % Inhibition of the Specific Binding at 10^-7 M for α2 Recep.
# Procedure: as §1, §2, §3, §4, §5, §6, §7
row,Compound,inhibition at 0.1 µM [%]
1,CC(O)(c1c[nH]cn1)C(c1ccccc1)c1ccccc1 (stereo not drawn) [Compound 3],10
2,"CC(Cc1c[nH]cn1)(c1ccccc1)c1ccccc1 [Compound 10, 4(5)-[1-(2,2-diphenyl)-propyl]imidazole]",6
3,COc1ccc(C(Cc2c[nH]cn2)c2ccc(OC)cc2)cc1 [Compound 23],20
4,Cc1ccc(C(Cc2c[nH]cn2)c2ccccc2)c(C)c1 (stereo not drawn) [Compound 24],34
5,"c1ccc(-c2ccc(C(Cc3c[nH]cn3)c3ccccc3)cc2)cc1 (stereo not drawn) [Compound 29, 4(5)-{[2-(4-biphenyl)-2-phenyl]ethyl}imidazole]",23

# Tested on: bicuculline-induced tonic extension in mice
# Assay: protection against bicuculline-induced tonic extension in mice
# Assay type: in vivo
# Settings: Mus musculus, iv, 3 hours prior to bicuculline 0.7 mg/kg i.v., read-out: Anticonvulsive effect (versus Bicuculline) (% Protection)
# Procedure: (§8) In the second study the anti-convulsant effect of the compounds of the present invention was examined in two seizure models; bicuculline-induced tonic extension in mice and 3-mercaptopropionic acid (3-MPA)-induced tonic extension in mice.
# (§9) In the bicuculline study, the ability of the compounds of the present invention to protect against tonic extension (involving rigidity) was evaluated as follows. Each test compound was administered to a group of ten mice at a dose of 10 mg/kg, 3 hours prior to the i.v. administration of bicuculline (0.7 mg/kg). Anticonvulsant activity in this test is expressed as percentage of animals tested. The results are given in Table II, column 6, and indicate that several compounds display significant anticonvulsive activity in this test. The anticonvulsant effect of the compounds has also been tested with respect to the tonic extension induced by 3-mercaptopropionic acid (120 mg/kg subcutaneously) in mice.
row,Compound,responders at 10 mg/kg [%]
1,CC(O)(c1c[nH]cn1)C(c1ccccc1)c1ccccc1 (stereo not drawn) [Compound 3],10
2,"CC(Cc1c[nH]cn1)(c1ccccc1)c1ccccc1 [Compound 10, 4(5)-[1-(2,2-diphenyl)-propyl]imidazole]",27
3,COc1ccc(C(Cc2c[nH]cn2)c2ccc(OC)cc2)cc1 [Compound 23],10
4,Cc1ccc(C(Cc2c[nH]cn2)c2ccccc2)c(C)c1 (stereo not drawn) [Compound 24],0

# Tested on: peripheral vascular α2 receptors
# Assay: inhibition of the pressor effect of BHT 920 in pithed rats
# Assay type: in vivo, rat
# Settings: 1 mg/kg i.v., BHT 920 30 μg/kg i.v.
# Procedure: The α2 antagonist activity of the compounds is evaluated by the inhibition of the pressor effect (blood pressure elevation), of a specific α2 agonist agent, 4H-Thiazolo[4,5-b]azetin-2-amine, 5,6,7,8-tetrahydro-6-(2-propenyl)-, dihydrochloride, designated as BHT 920 at a concentration of 30 μg/kg i.v.) according to a method described by J. C. Van Meel et al., J. Pharmacol. Exp. Ther., 219, 760-767 (1981).
# The compound to be tested is administered at 1 mg/kg i.v. The ability of the compounds tested to antagonize the pressor effects of BHT 920 is determined and expressed as percentage of inhibition. Any direct hypertensive (=α2 agonist) activity of the compounds under test can likewise be detected.
row,Compound,"α2 antagonist activity, inhibition of pressor effect of BHT 920 (in words)"
1,COc1ccc(C(Cc2c[nH]cn2)c2ccc(OC)cc2)cc1 [Compound 23],very active as α2 antagonist agents

# Tested on: 3-mercaptopropionic acid (3-MPA)-induced tonic extension in mice
# Assay: protection against 3-mercaptopropionic acid (3-MPA)-induced tonic extension in mice
# Assay type: in vivo
# Settings: 100 mg/kg orally, 30 minutes prior to 3-MPA (120 mg/kg s.c.)
# Procedure: as §8, §9
# In the 3-MPA assay, the compounds of the present invention are administered orally at a dose of 100 mg/kg 30 minutes prior to administration of 3-MPA. Each compound was tested on a group of 5 mice; if more than 1 mouse was protected, a second group of 5 mice was tested.
row,Compound,anticonvulsant effect versus 3-MPA (in words)
1,CC(O)(c1c[nH]cn1)C(c1ccccc1)c1ccccc1 (stereo not drawn) [Compound 3],potent anticonvulsant effect
2,"CC(Cc1c[nH]cn1)(c1ccccc1)c1ccccc1 [Compound 10, 4(5)-[1-(2,2-diphenyl)-propyl]imidazole]",potent anticonvulsant effect
3,Cc1ccc(C(Cc2c[nH]cn2)c2ccccc2)c(C)c1 (stereo not drawn) [Compound 24],potent anticonvulsant effect
4,"c1ccc(-c2ccc(C(Cc3c[nH]cn3)c3ccccc3)cc2)cc1 (stereo not drawn) [Compound 29, 4(5)-{[2-(4-biphenyl)-2-phenyl]ethyl}imidazole]",potent anticonvulsant effect
